Test results as given in article PMC9968691, “Perfluoroalkyl substances (PFASs) are substrates of the renal human organic anion transporter 4 (OAT4)” (Archives of Toxicology, 2022).
Entries after “also recorded” stand apart in the source; their conditions may differ. Marks after values point to notes of the source that are not given here.

Key:
[1] = target: T1, human OAT4 (Homo sapiens, UniProt Q9NSA0); experiment: Screening of cellular PFAS accumulation in OAT4-transfected vs control-transfected HEK293 cells (PFAS mixture); type: cell-based; settings: for Transport by OAT4 (cellular PFAS level in OAT4-transfected vs control-transfected cells; substantial = at least twofold higher): PFAS mixture, each 1 µM, 10 min; for OAT4 substrate: yes/no as identified in vitro in this study
T1 construct: expressed in transfected cells; host or cells: HEK293 cells transduced with recombinant baculovirus (CMV promoter)
T1 sequence (Q9NSA0 1-550): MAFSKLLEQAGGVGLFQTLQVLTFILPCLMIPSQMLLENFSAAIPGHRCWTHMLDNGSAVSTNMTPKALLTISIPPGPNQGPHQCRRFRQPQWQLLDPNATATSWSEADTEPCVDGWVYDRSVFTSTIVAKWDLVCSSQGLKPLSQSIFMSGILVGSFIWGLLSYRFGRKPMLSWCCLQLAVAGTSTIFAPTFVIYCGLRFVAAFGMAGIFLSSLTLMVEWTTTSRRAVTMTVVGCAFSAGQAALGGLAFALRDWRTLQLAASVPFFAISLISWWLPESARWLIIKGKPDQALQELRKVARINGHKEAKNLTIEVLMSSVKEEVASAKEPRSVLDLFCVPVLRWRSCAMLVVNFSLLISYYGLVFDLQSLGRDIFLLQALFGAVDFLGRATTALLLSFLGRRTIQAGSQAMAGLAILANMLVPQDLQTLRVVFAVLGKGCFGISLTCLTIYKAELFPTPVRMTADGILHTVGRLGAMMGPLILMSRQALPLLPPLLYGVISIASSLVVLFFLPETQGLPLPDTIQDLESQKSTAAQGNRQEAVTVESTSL
Text: (§1) The recombinant baculoviruses that contain the cDNA of human transporters OAT4 and URAT1 downstream of a cytomegalovirus (CMV) promotor were generated as previously described (Smeets et al. [2020]). As a negative control, baculovirus containing the gene for enhanced yellow fluorescence protein (eYFP) was produced similarly. Moreover, transduction of HEK293 cells and uptake assays were essentially performed as previously described (Smeets et al. [2020]). The culture medium was removed and cells were washed with buffer (HBSS plus 10 mM HEPES, pH 7.4). Uptake was initiated by replacing this solution with 150 µL of fresh transport buffer (HBSS (Life Technologies Invitrogen (Carlsbad, CA, USA))-HEPES (Sigma-Aldrich), pH 7.4) supplemented with the PFASs for 10 min. To terminate the reaction, transport buffer was replaced with 400 µL ice-cold HBSS-HEPES buffer containing 0.5% BSA (m/v; Roche Diagnostics GmbH (Mannheim, Germany)), after which the cells were washed twice with ice-cold HBSS-HEPES. Cellular PFAS concentrations were determined based on the method described by Rosenmai et al. ([2018]). Briefly, cells were solubilised in 250 µL lysis buffer and cell lysates were stored in Eppendorf tubes at − 80 °C and defrozen when needed for LC–MS analysis and for quantification of the protein concentration.
(§2) To 50 μL cell lysate, 850 μL methanol (Actu-All Chemicals, Oss, The Netherlands) containing internal standards (^13C4-PFHpA, ^13C4-PFOA, ^13C5-PFNA, ^13C2-PFDA, ^13C3-PFBS, ^18O2-PFHxS and ^13C4-PFOS (Wellington Laboratories, Canada) was added. These dilutions were vortexed well before centrifugation at maximum speed for 10 min at 4 °C. PFAS concentrations in the supernatant were determined using LC–MS/MS analysis. If required, samples were further diluted with methanol and containing internal standards. LC–MS/MS analysis was based on a Shimadzu UHPLC system containing: 2 pumps (LC 20AD xr); column oven (Shimadzu CTO-20AC); pump switch (Shimadzu FCV-11AL); degasser (Shimadzu DGU-20A3); and sample tray holder (Shimadzu SIL-20 AC XR model) (Shimadzu Corporation, Kyoto, Japan). An Acquity BEH-C18 analytical column (50 × 2.1 mm i.d., 1.7 μm, Waters, Milford, MA, USA) was used to separate the PFASs at a column temperature of 35 °C. In addition, a symmetry C18 analytical column (50 × 2.1 mm i.d., 5 µm, Waters, Milford, MA, USA) was used as a guard column, placed between the pump and the injector valve to isolate and delay interferences out of the LC system. The mobile phase consisted of 2 mM ammonium acetate (Merck Millipore, Darmstadt, Germany) in Milli-Q water (prepared using a Milli-Q system with a resistivity of at least 18.2 MΩ cm^−1 (Merck Millipore)) (mobile phase A) and Acetonitrile ULC/MS grade (Actu-All Chemicals, Oss, The Netherlands) (mobile phase B). The injection volume used was 20 μL. The chromatographic gradient was operated at a flow rate of 0.3 mL min^−1 starting from 25% mobile phase B in the first 0.1 min, a linear increase to 100% B in 6 min with a final hold of 2.5 min. The gradient was returned to 25% B within 0.1 min for 3.9 min to equilibrate before the next injection, resulting in a total run of 12.5 min.
(§3) Cellular PFAS content was normalised to cellular protein. To that end, from each cell lysate, 25 µL was used to determine the protein concentration (technical duplicate) using the Pierce BCA Protein Assay Kit (Thermo Scientific, Waltham, MA). First, samples were diluted two times with lysis buffer directly in a 96-wells plate (PS, F-bottom, clear; Greiner Bio-One, Alphen aan de Rijn, The Netherlands), and in each plate, a BSA standard curve (0.05–2 mg mL^−1 in lysis buffer) was included allowing protein quantification of the samples. The manufacturer’s protocol was followed for the subsequent steps and absorbance was measured using a microplate reader (Synergy™ HT BioTek, Winooski, VT) at 562 nm. […]

[2] = target: T2, human URAT1 (Homo sapiens, UniProt Q96S37); experiment: Screening of cellular PFAS accumulation in URAT1-transfected vs control-transfected HEK293 cells (PFAS mixture); type: cell-based; settings: yes/no as identified in vitro in this study
T2 construct: expressed in transfected cells; host or cells: HEK293 cells transduced with recombinant baculovirus (CMV promoter)
T2 sequence (Q96S37 1-553): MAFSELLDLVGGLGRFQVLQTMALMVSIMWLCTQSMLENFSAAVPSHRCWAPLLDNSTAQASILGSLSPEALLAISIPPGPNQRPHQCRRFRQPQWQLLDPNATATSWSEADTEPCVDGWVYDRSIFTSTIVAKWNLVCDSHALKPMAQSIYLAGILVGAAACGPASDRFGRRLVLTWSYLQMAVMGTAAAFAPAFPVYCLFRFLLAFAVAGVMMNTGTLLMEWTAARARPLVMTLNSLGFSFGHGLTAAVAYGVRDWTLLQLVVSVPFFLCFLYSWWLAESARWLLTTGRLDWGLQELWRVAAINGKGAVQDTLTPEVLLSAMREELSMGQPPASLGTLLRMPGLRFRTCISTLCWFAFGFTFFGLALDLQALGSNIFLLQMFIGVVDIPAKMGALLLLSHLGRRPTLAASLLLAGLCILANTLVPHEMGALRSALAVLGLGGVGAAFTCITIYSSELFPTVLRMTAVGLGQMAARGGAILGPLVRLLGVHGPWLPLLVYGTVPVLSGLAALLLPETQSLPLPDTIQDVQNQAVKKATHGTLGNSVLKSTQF
Text: as §1, §2, §3

[3] = system: albumin; settings: cited from earlier work; for Reported albumin/water partition coefficients: ref Allendorf et al. (2019)
[4] = cited from earlier work; for Reported half-life in humans: (average) serum half-life, ref Xu et al. (2020) for PFHpA, Olsen et al. (2007), Li et al. (2018), Xu et al. (2020) for PFOA, PFHxS, PFOS, Olsen et al. (2009) for PFBS; for Reported (average) serum half-life in humans: ref Olsen et al. (2009) for PFBS, Xu et al. (2020) for PFHpA
[5] = target: T1, human OAT4; experiment: OAT4-mediated cellular uptake kinetics (Michaelis–Menten) in OAT4-transfected vs control-transfected HEK293 cells; type: cell-based; settings: OAT4-transfected minus control-transfected HEK293 cells, 1 min exposure, 1-300 µM; best-fit value (standard error)
Procedure: (§4) OAT4- and control-transfected cells were exposed for 1 min to a range of PFAS concentrations (1, 3, 10, 30, 100 and 300 µM) and cellular amounts were determined.
(§5) OAT4-transfected cells and control-transfected cells were exposed for 1 min to a range of PFAS concentrations and cellular amounts were determined. Amounts obtained in control-transfected cells were subtracted from amounts obtained in OAT4-transfected cells to obtain OAT4-mediated cellular uptake rates.

[6] = substrate: O=C(O)C(F)(F)C(F)(F)C(F)(F)C(F)(F)C(F)(F)C(F)(F)C(F)(F)C(F)(F)C(F)(F)F; experiment: cells, lysate or membranes; settings: other: OAT4-transfected minus control-transfected HEK293 cells, 1 min exposure, 1-300 µM; best-fit value (standard error); pH 7.4
[7] = substrate: O=C(O)C(F)(F)C(F)(F)C(F)(F)C(F)(F)C(F)(F)C(F)(F)C(F)(F)C(F)(F)F; experiment: cells, lysate or membranes; settings: other: OAT4-transfected minus control-transfected HEK293 cells, 1 min exposure, 1-300 µM; best-fit value (standard error); pH 7.4
[8] = substrate: O=S(=O)(O)C(F)(F)C(F)(F)C(F)(F)C(F)(F)C(F)(F)C(F)(F)C(F)(F)C(F)(F)F; experiment: cells, lysate or membranes; settings: other: OAT4-transfected minus control-transfected HEK293 cells, 1 min exposure, 1-300 µM; best-fit value (standard error); pH 7.4
[9] = substrate: O=C(O)C(F)(F)C(F)(F)C(F)(F)C(F)(F)C(F)(F)C(F)(F)C(F)(F)F; experiment: OAT4-mediated cellular uptake kinetics (Michaelis–Menten) in OAT4-transfected vs control-transfected HEK293 cells; type: cell-based, human; settings: other: OAT4-transfected minus control-transfected HEK293 cells, 1 min exposure, 1-300 µM; best-fit value (standard error); pH 7.4
Procedure: as §4, §5

[10] = substrate: O=C(O)C(F)(F)C(F)(F)C(F)(F)C(F)(F)C(F)(F)C(F)(F)F; experiment: as above; type: cell-based, human; settings: other: OAT4-transfected minus control-transfected HEK293 cells, 1 min exposure, 1-300 µM; best-fit value (standard error); pH 7.4
Procedure: as §4, §5

[11] = substrate: O=S(=O)(O)C(F)(F)C(F)(F)C(F)(F)C(F)(F)C(F)(F)C(F)(F)F; experiment: as above; type: cell-based, human; settings: other: OAT4-transfected minus control-transfected HEK293 cells, 1 min exposure, 1-300 µM; best-fit value (standard error); pH 7.4
Procedure: as §4, §5

Molecule: O=S(=O)(O)C(F)(F)C(F)(F)C(F)(F)C(F)(F)F [PFBS, perfluorobutane sulfonate]
- Transport by OAT4 (cellular PFAS level in OAT4-transfected vs control-transfected cells; substantial = at least twofold higher) [1]: rather limited; also recorded: limited transport
- OAT4 substrate [1]: No
- URAT1 substrate [2]: No
- Binding to albumin ([3]; compared to the other PFASs, ref Allendorf et al. 2019, Gao et al. 2019, Lu et al. 2021): relatively low binding to albumin
- Reported half-life in humans [4]: 0.07–0.12^d years
- Reported (average) serum half-life in humans [4]: 26 to 44 days

Molecule: O=C(O)C(F)(F)C(F)(F)C(F)(F)C(F)(F)C(F)(F)C(F)(F)F [PFHpA, Perfluoroheptanoic acid]
- Transport by OAT4 (cellular PFAS level in OAT4-transfected vs control-transfected cells; substantial = at least twofold higher) [1]: substantial transport; also recorded: more than twofold increase
- OAT4 substrate [1]: Yes
- URAT1 substrate [2]: No
- Reported albumin/water partition coefficients [3]: 4.0 L/kg
- Reported half-life in humans [4]: 0.17^b years
- Reported (average) serum half-life in humans [4]: 62 days

Molecule: O=C(O)C(F)(F)C(F)(F)C(F)(F)C(F)(F)C(F)(F)C(F)(F)C(F)(F)C(F)(F)C(F)(F)F [PFDA, perfluorodecanoic acid]
- Transport by OAT4 (cellular PFAS level in OAT4-transfected vs control-transfected cells; substantial = at least twofold higher) [1]: substantial transport; also recorded: more than twofold increase
- OAT4 substrate [1]: Yes
- URAT1 substrate [2]: No
- Reported albumin/water partition coefficients [3]: 4.7 L/kg

Molecule: O=C(O)C(F)(F)C(F)(F)C(F)(F)C(F)(F)C(F)(F)C(F)(F)C(F)(F)C(F)(F)F [PFNA, perfluorononanoic acid]
- Apparent Vmax [5]: 8.5 nmol min^−1 mg protein^−1
- Transport by OAT4 (cellular PFAS level in OAT4-transfected vs control-transfected cells; substantial = at least twofold higher) [1]: substantial transport; also recorded: more than twofold increase
- OAT4 substrate [1]: Yes
- URAT1 substrate [2]: No
- Reported albumin/water partition coefficients [3]: 4.3 L/kg

Molecule: O=S(=O)(O)C(F)(F)C(F)(F)C(F)(F)C(F)(F)C(F)(F)C(F)(F)F [PFHxS, Perfluorohexane sulfonate]
- Transport by OAT4 (cellular PFAS level in OAT4-transfected vs control-transfected cells; substantial = at least twofold higher) [1]: substantial transport; also recorded: more than twofold increase
- OAT4 substrate [1]: Yes
- URAT1 substrate [2]: No
- Reported half-life in humans [4]: 2.9–8.5^c years

B1: human OAT4 (Homo sapiens) (protein)
chain: T1 sequence (Q9NSA0 1-550)
notes: expressed in transfected cells; host or cells: HEK293 cells transduced with recombinant baculovirus (CMV promoter)
- Km [6]: 39 (15) µM
- Vmax [6]: 0.006 µmol/min/mg
- Vmax/Km [6]: 154 µL min^−1 mg protein^−1
- Km [7]: 58 (15) µM
- Vmax [7]: 0.0085 µmol/min/mg
- Vmax/Km [7]: 147 µL min^−1 mg protein^−1
- Km [8]: 48 (24) µM
- Vmax [8]: 0.0022 µmol/min/mg
- Vmax/Km [8]: 46 µL min^−1 mg protein^−1
- Km [9]: 47 (15) µM
- Vmax [9]: 0.0045 µmol/min/mg
- Vmax/Km [9]: 96 µL min^−1 mg protein^−1
- Km [10]: 60 (15) µM
- Vmax [10]: 0.0045 µmol/min/mg
- Vmax/Km [10]: 75 µL min^−1 mg protein^−1
- Km [11]: 92 (33) µM
- Vmax [11]: 0.0073 µmol/min/mg
- Vmax/Km [11]: 79 µL min^−1 mg protein^−1
